From patent publication US20110003393A1, “SYSTEMS AND METHODS FOR STUDYING INFLUENZA” (President and Fellows of Harvard College, priority 2007, published 2011) come the findings set out here.

For test [1], the target named is T1, M2 proton channel of the influenza A virus (Influenza A virus, UniProt P0DOF5, C19S/C50S). The format is binding, influenza A virus (A/Udorn).
The target of test [2] is T1, M2 proton channel of the influenza A virus. The format is binding, influenza A virus (A/Udorn). The following applies: pH 7.5, 40 mM rimantadine, 0.75 mM M2(18-60) monomer, 300 mM DHPC, four NOESY spectra.

For `CC(N)C12CC3CC(CC(C3)C1)C2` (stereo not drawn) [rimantadine], in test [1] (pH 6), the “affinity for the open state of the channel” value is reported as “much lower affinity, if any, for the open state”. Besides, the “effect of binding on channel conformation” value in test [1] (pH 7) is “stabilizes the closed conformation”. In addition, the “location of binding site from protein-rimantadine NOEs” value in test [2] is listed as “between adjacent helices at the C-terminal end of the TM domain near the Trp41 gate, on the membrane side of the channel”.
